Data: US20240228488A1 (TAKEDA PHARMACEUTICAL COMPANY LIMITED, priority 2021, published 2024)
pEC50: −log10 of the molar value.

Molecular target: human activated kallikrein enzyme (Homo sapiens, UniProt P03952)
Assay: Plasma kallikrein inhibition, fluorogenic PFR-AMC substrate, 500 pM activated kallikrein format
Type: biochemical
Settings: 500 pM activated kallikrein, 300 uM PFR-AMC, 30 min preincubation, 10 min reaction; read-out: Primary Dose Response Assay: Average EC50
Outline: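 Fluorescence (ex 380/em 460 nm) is read after 10 min of 300 uM PFR-AMC turnover by 500 pM enzyme at RT. Compounds sit with enzyme for 30 min beforehand. Buffer is Tris (pH 7.5) with EDTA, NaCl, PEG-400 and Triton X-100; EC50 values are banded.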

Sequence of human activated kallikrein enzyme (P03952 391-638 limits assumed): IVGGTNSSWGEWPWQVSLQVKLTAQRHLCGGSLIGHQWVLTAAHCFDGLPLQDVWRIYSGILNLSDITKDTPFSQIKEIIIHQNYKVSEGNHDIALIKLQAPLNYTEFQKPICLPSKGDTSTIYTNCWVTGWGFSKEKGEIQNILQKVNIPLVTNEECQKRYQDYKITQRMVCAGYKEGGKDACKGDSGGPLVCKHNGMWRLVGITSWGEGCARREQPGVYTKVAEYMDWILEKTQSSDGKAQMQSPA
Sequence of human activated kallikrein enzyme (P03952 20-390 partner limits assumed): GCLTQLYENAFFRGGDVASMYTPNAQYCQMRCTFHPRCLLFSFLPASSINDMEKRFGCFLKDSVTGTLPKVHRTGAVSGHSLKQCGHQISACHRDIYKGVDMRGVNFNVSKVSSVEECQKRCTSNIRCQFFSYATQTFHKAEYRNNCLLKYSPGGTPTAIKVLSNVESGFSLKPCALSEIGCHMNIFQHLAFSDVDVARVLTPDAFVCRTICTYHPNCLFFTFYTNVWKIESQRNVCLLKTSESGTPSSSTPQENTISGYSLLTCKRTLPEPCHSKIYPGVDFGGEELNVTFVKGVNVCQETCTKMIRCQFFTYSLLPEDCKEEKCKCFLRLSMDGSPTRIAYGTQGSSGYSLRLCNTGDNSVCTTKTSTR

pEC50	SMILES
8.00 to 9.00	O=C(Nc1cc(NCc2cn3cc(C4CC4)cc(CN4CCOCC4)c3n2)ncn1)[C@H]1C[C@@H]1c1cccc(Cl)c1 (racemic) [Example 73, rac-(1S*,2S*)-2-(3-chlorophenyl)-N-(6-(((6-cyclopropyl-8-(morpholinomethyl)imidazo[1,2-a]pyridin-2-yl)methyl)amino)pyrimidin-4-yl)cyclopropane-1-carboxamide]
> 9.00	Cc1ccnc([C@H]2C[C@@H]2C(=O)Nc2nccc3nc(Cc4cn5cc(C6CC6)cc(N6CC(=O)N(C)C6=O)c5n4)oc23)n1 [Example 629, (1S,2S)—N-(2-((6-cyclopropyl-8-(3-methyl-2,4-dioxoimidazolidin-1-yl)imidazo[1,2-a]pyridin-2-yl)methyl)oxazolo[5,4-c]pyridin-4-yl)-2-(4-methylpyrimidin-2-yl)cyclopropane-1-carboxamide]
7.00 to 8.00	O=C(Nc1cc(NCc2cn3cc(C4CC4)ccc3n2)ncn1)[C@H]1C[C@@H]1c1cccc(Cl)c1F (racemic) [Example 43, rac-(1S*,2S*)-2-(3-chloro-2-fluorophenyl)-N-(6-(((6-cyclopropylimidazo[1,2-a]pyridin-2-yl)methyl)amino)pyrimidin-4-yl)cyclopropane-1-carboxamide]
6.00 to 7.00	O=C(O)COc1ccc(Cl)cc1[C@H]1C[C@@H]1C(=O)Nc1cc(NCc2cn3cc(C4CC4)ccc3n2)ncn1 (racemic) [Example 315, rac-3-(4-chloro-2-((1S*,2S*)-2-((6-(((6-cyclopropylimidazo[1,2-a]pyridin-2-yl)methyl)amino)pyrimidin-4-yl)carbamoyl)cyclopropyl)phenoxy)acetic acid]
8.00 to 9.00	Cc1cc2nn(Cc3cn4cc(C5CC5)ccc4n3)cc2c(NC(=O)[C@H]2C[C@@H]2c2cccc(Cl)c2)n1 [Example 581, (1S,2S)-2-(3-chlorophenyl)-N-(2-((6-cyclopropylimidazo[1,2-a]pyridin-2-yl)methyl)-6-methyl-2H-pyrazolo[4,3-c]pyridin-4-yl)cyclopropane-1-carboxamide]
> 9.00	Cc1ccnc([C@H]2C[C@@H]2C(=O)Nc2nncc(NCc3cn4cc(C5CC5)cc(N5CC(=O)N(C)C5=O)c4n3)n2)n1 [Example I-651, (1S,2S)—N-(5-(((6-cyclopropyl-8-(3-methyl-2,4-dioxoimidazolidin-1-yl)imidazo[1,2-a]pyridin-2-yl)methyl)amino)-1,2,4-triazin-3-yl)-2-(4-methylpyrimidin-2-yl)cyclopropane-1-carboxamide]
> 9.00	Cc1cc(NC(=O)[C@H]2C[C@@H]2c2nccc(C)n2)cc(N[C@H](C)c2cn3cc(C4CC4)cc(N4CC(=O)N(C)C4=O)c3n2)n1 [Example I-246, (1S,2S)-N-(2-(((R)-1-(6-cyclopropyl-8-(3-methyl-2,4-dioxoimidazolidin-1-yl)imidazo[1,2-a]pyridin-2-yl)ethyl)amino)-6-methylpyridin-4-yl)-2-(4-methylpyrimidin-2-yl)cyclopropane-1-carboxamide]
8.00 to 9.00	CC1CCN(c2cc(C3CC3)cn3cc(CNc4cc(NC(=O)[C@H]5C[C@@H]5c5cccc(Cl)c5)ncn4)nc23)C1=O (relative stereo) [Example 67, rac-(1S*,2S*)-2-(3-chlorophenyl)-N-(6-(((6-cyclopropyl-8-(3-methyl-2-oxopyrrolidin-1-yl)imidazo[1,2-a]pyridin-2-yl)methyl)amino)pyrimidin-4-yl)cyclopropane-1-carboxamide]
8.00 to 9.00	Nc1cc(C2CC2)cn2cc(CNc3cc(NC(=O)[C@H]4C[C@@H]4c4cccc(Cl)c4)ncn3)nc12 [Example 308, (1S,2S)—N-(6-(((8-amino-6-cyclopropylimidazo[1,2-a]pyridin-2-yl)methyl)amino)pyrimidin-4-yl)-2-(3-chlorophenyl)cyclopropane-1-carboxamide]
> 9.00	Cc1ccnc([C@H]2C[C@@H]2C(=O)Nc2cc(N[C@H](C)c3cn4cc(C5CC5)cc(N5C(=O)N(C)C(=O)C5(C)C)c4n3)nc(C)n2)n1 [Example 432, (1S,2S)-N-(6-(((R)-1-(6-cyclopropyl-8-(3,5,5-trimethyl-2,4-dioxoimidazolidin-1-yl)imidazo[1,2-a]pyridin-2-yl)ethyl)amino)-2-methylpyrimidin-4-yl)-2-(4-methylpyrimidin-2-yl)cyclopropane-1-carboxamide]
< 5.22	COc1cc([C@H]2C[C@@H]2C(=O)Nc2cc(NCc3cn4cc(C5CC5)ccc4n3)ccn2)cc(NC(=O)OC(C)(C)C)n1 (racemic) [Example I-216, rac-tert-butyl (4-((1S*,2S*)-2-((4-(((6-cyclopropylimidazo[1,2-a]pyridin-2-yl)methyl)amino)pyridin-2-yl)carbamoyl)cyclopropyl)-6-methoxypyridin-2-yl)carbamate]
> 9.00	Cc1ccnc([C@H]2C[C@@H]2C(=O)Nc2cc(NCc3cn4cc(C5CC5(F)F)cc(N5CC(=O)N(C)C5=O)c4n3)ncn2)n1 (stereo partly drawn) [Example 535, (1S,2S)-N-(6-(((6-(2,2-difluorocyclopropyl)-8-(3-methyl-2,4-dioxoimidazolidin-1-yl)imidazo[1,2-a]pyridin-2-yl)methyl)amino)pyrimidin-4-yl)-2-(4-methylpyrimidin-2-yl)cyclopropane-1-carboxamide]
8.00 to 9.00	CN1C(=O)CN(c2cc(C3CC3)cn3cc(CNc4cc(NC(=O)C5CC5(F)c5cccc(Cl)c5)ncn4)nc23)C1=O (racemic) [Example 329, rac-2-(3-chlorophenyl)-N-(6-(((6-cyclopropyl-8-(3-methyl-2,4-dioxoimidazolidin-1-yl)imidazo[1,2-a]pyridin-2-yl)methyl)amino)pyrimidin-4-yl)-2-fluorocyclopropane-1-carboxamide]
> 9.00	CCOC(=O)Cc1cc(C2CC2)cn2cc(CNc3ccnc(NC(=O)[C@H]4C[C@@H]4c4cccc(Cl)c4)c3)nc12 [Example I-241, ethyl 2-(2-(((2-((1S,2S)-2-(3-chlorophenyl)cyclopropane-1-carboxamido)pyridin-4-yl)amino)methyl)-6-cyclopropylimidazo[1,2-a]pyridin-8-yl)acetate]
> 9.00	Cc1ccnc([C@H]2C[C@@H]2C(=O)Nc2ncc3c(n2)N(Cc2cn4cc(C5CC5)cc(N5CC(=O)N(C)C5=O)c4n2)CCO3)n1 [Example 631]
8.00 to 9.00	O=C(Nc1cc(NCc2cn3cc(C4CC4)ccc3n2)ccn1)[C@@H]1C[C@H]1c1cccc(Cl)c1 (racemic) [Example 115, rac-(1S*,2S*)-2-(3-chlorophenyl)-N-(4-(((6-cyclopropylimidazo[1,2-a]pyridin-2-yl)methyl)amino)pyridin-2-yl)cyclopropane-1-carboxamide]
> 9.00	Cc1ccnc([C@H]2C[C@@H]2C(=O)Nc2cnnc(OCc3cn4cc(C5CC5)cc(N5CC(=O)N(C)C5=O)c4n3)c2)n1 [Example I-648, (1S,2S)—N-(6-((6-cyclopropyl-8-(3-methyl-2,4-dioxoimidazolidin-1-yl)imidazo[1,2-a]pyridin-2-yl)methoxy)pyridazin-4-yl)-2-(4-methylpyrimidin-2-yl)cyclopropane-1-carboxamide]
> 9.00	Cc1ccnc([C@H]2C[C@@H]2C(=O)Nc2cc(N[C@H](C)c3cn4cc(C5CC5)cc(N5CC6(CN(C)C6)N(C)C5=O)c4n3)ncn2)n1 [Example I-245, (1S,2S)-N-(6-(((R)-1-(6-cyclopropyl-8-(2,5-dimethyl-6-oxo-2,5,7-triazaspiro[3.4]octan-7-yl)imidazo[1,2-a]pyridin-2-yl)ethyl)amino)pyrimidin-4-yl)-2-(4-methylpyrimidin-2-yl)cyclopropane-1-carboxamide]
7.00 to 8.00	O=C(Nc1cc(NCc2cn3cc(C4CC4)ccc3n2)ncn1)[C@H]1C[C@@H]1c1cc(Cl)ccc1F (racemic) [Example 44, rac-(1S*,2S*)-2-(5-chloro-2-fluorophenyl)-N-(6-(((6-cyclopropylimidazo[1,2-a]pyridin-2-yl)methyl)amino)pyrimidin-4-yl)cyclopropane-1-carboxamide]
7.00 to 8.00	O=C(Nc1cc(NCc2cn3cc(C4CC4)ccc3n2)ccn1)[C@H]1C[C@@H]1c1ccnc(Cl)c1 (racemic) [Example I-220, rac-(1S*,2S*)-2-(2-chloropyridin-4-yl)-N-(4-(((6-cyclopropylimidazo[1,2-a]pyridin-2-yl)methyl)amino)pyridin-2-yl)cyclopropane-1-carboxamide]
8.00 to 9.00	O=C(Nc1cc(NCc2cn3cc(C4CC4)ccc3n2)ncn1)[C@H]1C[C@@H]1c1cc(Cl)ccc1O (racemic) [Example 313, rac-(1S*,2S*)-2-(5-chloro-2-hydroxyphenyl)-N-(6-(((6-cyclopropylimidazo[1,2-a]pyridin-2-yl)methyl)amino)pyrimidin-4-yl)cyclopropane-1-carboxamide]
7.00 to 8.00	N#Cc1ccc(Cl)cc1[C@H]1C[C@@H]1C(=O)Nc1cc(C(O)c2cn3cc(C4CC4)ccc3n2)ncn1 (relative stereo) [Example 352, rac-(1S*,2S*)-2-(5-chloro-2-cyanophenyl)-N-(6-((6-cyclopropylimidazo[1,2-a]pyridin-2-yl)(hydroxy)methyl)pyrimidin-4-yl)cyclopropane-1-carboxamide]
8.00 to 9.00	O=C(O)c1cc(C2CC2)cn2cc(CNc3cc(NC(=O)[C@H]4C[C@@H]4c4cccc(Cl)c4)ncn3)nc12 [Example 298, 2-(((6-((1S,2S)-2-(3-chlorophenyl)cyclopropane-1-carboxamido)pyrimidin-4-yl)amino)methyl)-6-cyclopropylimidazo[1,2-a]pyridine-8-carboxylic acid]

Same assay, conditions: comparative compounds, 500 pM activated kallikrein format; read-out: Primary Dose Response Assay: Average EC50

pEC50	SMILES
5.22 to 6.00	O=C(NCCc1cccc(Br)c1)c1cnn(Cc2cn3cc(C4CC4)ccc3n2)c1
8.00 to 9.00	O=C(Cc1ncn2ccc(Cl)cc12)Nc1cc(NCc2cn3cc(C4CC4)ccc3n2)ncn1
